Consider 41 compounds from patent US11753408B2, “Compounds and method for blocking transmission of malarial parasite” (The United States of America, as represented by the …, priority 2016, dated 2023).

Usually pEC50 stands for the negative decadic logarithm of the EC50, by convention in mol/L. A low value points to a large EC50.

The subject of series [1] is Asexual parasites of P. falciparum strain 3D7. In words: In vitro drug activity on asexual parasites (SYBR Green assay). The series is classed as cell-based, Plasmodium falciparum. As to the method:
Cell culture. Asexual parasites of P. falciparum strain 3D7 were cultured as described previously [Trager W, et al., Journal of Parasitology 2005, 91: 484-486], Stage III-V gametocytes were selected and enriched with 3-day treatment with 50 mM N-acetylglucosamine (NAG) and the following Percoll density gradient centrifugation after gametocyte production [Tanaka T Q, et al., Molecular and Biochemical Parasitology, 2011, 111: 160-163], Gametocytes of HB3 and Dd2 strains were produced and then set up for assay in a similar process. HepG2 cells (ATCC, cat. no. 77400) were cultured in 175-cm^2 tissue culture flasks with 30 ml growth medium at 37° C. in a 5% CO2 humidified atmosphere. Growth medium was made with Dulbecco's Modified Eagle Medium with 10% fetal bovine serum (FBS). Growth medium was replaced every other day and cells were passed at 75% confluence.
Asexual parasites of P. falciparum strain 3D7 were cultured as described previously (Trager, W. et al., J. Parasitol. 2005, 91(3): 484-486). Drug activity on asexual stage parasites was tested using a SYBR Green assay as described previously (Eastman, R. T. et al., Antimicrob. Agents Chemother. 2013, 57(1): 425-435; Smilkstein, M. et al., Antimicrob. Agents Chemother. 2004, 48(5): 1803-1806). Briefly, parasites were diluted to 0.5% parasitemia in complete culture medium with 2% hematocrit and drugs diluted in DMSO (≤0.5%) and were loaded into a 96-well plate (200 μl/well). No drug and RBC alone wells were included as positive and background controls, respectively, and each testing condition was examined in duplicated. After 72 h incubation under the standard culture condition and a freeze-thaw lysis step at −80° C. and room temperature, 100 μl/well of lysis buffer containing SYBR Green I was added to the parasite culture and incubated for 30 min at room temperature. The fluorescence of each well was measured at 520 nm following excitation at 490 nm using a FLUOstar Optima™ microplate reader (BMG Labtech).

A further series in a line: Solubility at pH 7.4. The series is classed as physicochemical.
Series [2] is described as follows: Microsomal stability (rat). To be noted: rat microsomes. The series is classed as in vitro ADME.
The target of the next series is mTOR (Homo sapiens, UniProt P42345). In words: mTOR activity (no method described). It counts as biochemical.
Where [3] appears, read: P. falciparum 3D7 asexual parasites, 72 h, SYBR Green.

pEC50: −log10 of the molar value. Where two headings read alike, the source gives them in different places.

In series [1], `O=C(NCCN1CCNCC1)c1ccc(-n2c(=O)ccc3cnc4ccc(-c5ccc(Cl)cc5)cc4c32)cc1` [Compound 98] showed a pEC50 of 7.71. Further, the “Sol @ pH 7.4” value in the series “Solubility at pH 7.4” came to 0 ug/mL. Further, the “Microsomal Stability (rat) T1/2” value in series [2] is greater than 30 min. This compound gave a mTOR at mTOR of 0.994 µM.

Take `O=C(c1ccc(-n2c(=O)ccc3c(Cl)nc4ccc(-c5ccc(Cl)cc5)cc4c32)cc1)N1CCOCC1` [Compound 210]: the negative logarithm of the EC50 (pEC50) in series [1] is 4.84. Besides, the “Sol @ pH 7.4” value in “Solubility at pH 7.4” is less than 1 ug/mL. Moreover, in series [2], the “Microsomal Stability (rat) T1/2” value is recorded as 2.7 min. The mTOR at mTOR was 100 µM.

Regarding `COc1cc(C(=O)NCCCN2CCS(=O)(=O)CC2)ccc1-n1c(=O)ccc2cnc3ccc(-c4ccc(Cl)cc4)cc3c21` [Compound 226], the negative-log EC50 (pEC50) in series [1] is 6.68. Also, the mTOR at mTOR came out at 8.446 µM.

As for `COc1cc(C(=O)NCCCN(CCO)CCO)ccc1-n1c(=O)ccc2cnc3ccc(-c4ccc(Cl)cc4)cc3c21` [Compound 227], the pEC50 in series [1] is 7.18. For the same compound, the mTOR at mTOR worked out at 16 µM.

Turning to `CCN(CC)CCCNC(=O)c1ccc(-n2c(=O)ccc3cnc4ccc(-c5ccc(Cl)cc5)cc4c32)c(OC)c1` [Compound 228], the pEC50 in series [1] was 6.71. The mTOR at mTOR amounted to 11.22 µM.

In turn, `COc1cc(C(=O)NCCCN2CCCCC2)ccc1-n1c(=O)ccc2cnc3ccc(-c4ccc(Cl)cc4)cc3c21` [Compound 229] gave a negative logarithm of the EC50 (pEC50) in series [1] of 6.63. Moreover, the mTOR on mTOR was 19.25 µM.

Consider `COc1cc(C(=O)NCCCN(C)C)ccc1-n1c(=O)ccc2cnc3ccc(-c4ccc(Cl)cc4)cc3c21` [Compound 230], for which the negative-log EC50 (pEC50) in series [1] was 7.01. The same compound registered a mTOR at mTOR of 50 µM.

In turn, `COc1cc(C(=O)NCCN2CCCC2)ccc1-n1c(=O)ccc2cnc3ccc(-c4ccc(Cl)cc4)cc3c21` [Compound 248] gave a negative logarithm of the EC50 (pEC50) in series [1] of 6.48. Besides, in the series “Solubility at pH 7.4”, the “Sol @ pH 7.4” value is given as 51.2 ug/mL. The “Microsomal Stability (rat) T1/2” value in series [2] amounted to 10.6 min. In addition, the mTOR on mTOR came to 23.38 µM.

Compound `COc1cc(C(=O)NCCN2CCN(C)CC2)ccc1-n1c(=O)ccc2cnc3ccc(-c4ccc(Cl)cc4)cc3c21` [Compound 252] yielded a mTOR on mTOR of 100 µM.

Turning to `CN(C)CCN(C)C(=O)c1ccc(-n2c(=O)ccc3cnc4ccc(-c5ccc(Cl)cc5)cc4c32)cc1` [Compound 299], the negative-log EC50 (pEC50) in series [1] is 7.26. Further, the mTOR on mTOR was 5.83 µM.

With `CCN(CCN(C)C)C(=O)c1ccc(-n2c(=O)ccc3cnc4ccc(-c5ccc(Cl)cc5)cc4c32)cc1` [Compound 300], the negative-log EC50 (pEC50) in series [1] is 7.48. In addition, at mTOR, the mTOR came to 3.792 µM.

With `N#CC1(NC(=O)c2ccc(-n3c(=O)ccc4cnc5ccc(-c6ccc(Cl)cc6)cc5c43)cc2)CC1` [Compound 304], the pEC50 in series [1] is 7.72. The compound further showed a mTOR on mTOR of 0.8535 µM.

For `CCC(=O)N(CC)CCNC(=O)c1ccc(-n2c(=O)ccc3cnc4ccc(-c5ccc(Cl)cc5)cc4c32)cc1` [Compound 305], in series [1], the negative-log EC50 (pEC50) was 6.32. This compound also had a mTOR on mTOR of 4.727 µM.

With `O=C(NCCC1CCN(C2COC2)CC1)c1ccc(-n2c(=O)ccc3cnc4ccc(-c5ccc(Cl)cc5)cc4c32)cc1` [Compound 306], in series [1], the pEC50 is 7.00. The compound also came in with a mTOR at mTOR of 8.864 µM.

`CN1CCN(Cc2ccc(-c3ccc4ncc5ccc(=O)n(-c6ccc(C(=O)NC7CC7)cc6)c5c4c3)cc2)CC1` [Compound 307] gave a pEC50 in series [1] of 6.72. Further, the mTOR on mTOR was found to be 39.9 µM.

In series [1], `O=C(NC1CC1)c1ccc(-n2c(=O)ccc3cnc4ccc(-c5ccc(Cl)c(F)c5)cc4c32)cc1` [Compound 308] gave a pEC50 of 7.63. The compound further yielded a mTOR on mTOR of 2.099 µM.

In series [1], `O=C(NCCN1CCCC1=O)c1ccc(-n2c(=O)ccc3cnc4ccc(-c5ccc(Cl)cc5)cc4c32)cc1` [Compound 309] gave a negative-log EC50 (pEC50) of 6.26. This compound also gave a mTOR on mTOR of 3.824 µM.

For the compound `CCC(=O)N(C)CCNC(=O)c1ccc(-n2c(=O)ccc3cnc4ccc(-c5ccc(Cl)cc5)cc4c32)cc1` [Compound 310], the negative-log EC50 (pEC50) in series [1] was 6.38. Also, on mTOR, the mTOR was 3.373 µM.

`CC(C)(O)CNC(=O)c1ccc(-n2c(=O)ccc3cnc4ccc(-c5ccc(Cl)cc5)cc4c32)cc1` [Compound 311] had a negative-log EC50 (pEC50) in series [1] of 7.27. Further, the mTOR on mTOR came out at 0.1982 µM.

Compound `N#Cc1cc(-n2c(=O)ccc3cnc4ccc(-c5ccc(Cl)cc5)cc4c32)ccc1C(=O)NC1CC1` [Compound 312] gave a negative logarithm of the EC50 (pEC50) in series [1] of 5.73. This compound also showed a mTOR at mTOR of 500 µM.

`Cc1cc(C(=O)NCCN2CCNCC2)ccc1-n1c(=O)ccc2cnc3ccc(-c4ccc(Cl)cc4)cc3c21` [Compound 313] had a negative logarithm of the EC50 (pEC50) in series [1] of 7.41. This compound came in with a mTOR at mTOR of 1.429 µM.

On to `Nc1nc2ccc(-c3ccc(Cl)cc3)cc2c2c1ccc(=O)n2-c1ccc(C(=O)N2CCOCC2)cc1` [Compound 314], for which the pEC50 in series [1] is 6.37. At mTOR, the mTOR was determined as 0.78 µM.

Consider `O=C(NC1CC1)c1ccc(-n2c(=O)ccc3cnc4ccc(-c5ccc(Cl)cc5)cc4c32)cn1` [Compound 315], for which the negative logarithm of the EC50 (pEC50) in series [1] was 6.86. Besides, the mTOR on mTOR came out at 100 µM.

In turn, `COc1cc(C(=O)NCCN(C)C)ccc1-n1c(=O)ccc2cnc3ccc(-c4ccc(F)c(O)c4)cc3c21` [Compound 316] had a negative logarithm of the EC50 (pEC50) in series [1] of 6.38. The mTOR on mTOR turned out to be 8.154 µM.

In the case of `COc1cc(C(=O)NCCN(C)C)ccc1-n1c(=O)ccc2cnc3ccc(-c4ccc(Cl)cc4)cc3c21` [Compound 317], the negative logarithm of the EC50 (pEC50) in series [1] is 6.70. Further, the mTOR on mTOR is 8.572 µM.

Compound `NC1(c2ccc(-c3ccc4ncc5ccc(=O)n(-c6ccc7c(c6)CNS7(=O)=O)c5c4c3)cc2)CC1` [Compound 383] had a negative-log EC50 (pEC50) in series [1] (setting [3]) of 7.21.

In series [1] (setting [3]), `O=C1c2ccc(-n3c(=O)ccc4cnc5ccc(-c6ccc(Cl)cc6)cc5c43)cc2C(=O)N1C1CC1` [Compound 384] showed a pEC50 of 5.88.

As to `Cn1c(=O)n(-c2ccc(N3CCNCC3)c(C#N)c2)c2c3cc(-c4cccc(C#N)c4)ccc3ncc21` [Compound 418], the pEC50 in series [1] was 8.10. Further, at mTOR, the mTOR was 0.7002 µM.

In series [1], `Cc1ccc(C#N)cc1-n1c(=O)n(C)c2cnc3ccc(-c4ccc[nH]4)cc3c21` [Compound 419] showed a pEC50 of 7.08. The same compound yielded a mTOR at mTOR of 30.38 µM.

Compound `Cc1ccc(C#N)cc1-n1c(=O)n(C)c2cnc3ccc(-c4cccn4C)cc3c21` [Compound 420] gave a pEC50 in series [1] of 6.84. The same compound displayed a mTOR on mTOR of 30.22 µM.

For the compound `Cc1cc(N2CCNCC2)c(C#N)cc1-n1c(=O)n(C)c2cnc3ccc(-c4cccs4)cc3c21` [Compound 421], the pEC50 in series [1] was 7.72. Also, the mTOR at mTOR is 18.94 µM.

Take `CC(=O)N1CCN(c2cc(C)c(-n3c(=O)n(C)c4cnc5ccc(-c6ccc(F)cc6)cc5c43)cc2C#N)CC1` [Compound 422]: the pEC50 in series [1] is 8.23. Moreover, the mTOR at mTOR stood at 1.87 µM.

Compound `CC(=O)N1CCN(c2cc(C)c(-n3c(=O)n(C)c4cnc5ccc(-c6cccc(C#N)c6)cc5c43)cc2C#N)CC1` [Compound 423] showed a negative logarithm of the EC50 (pEC50) in series [1] of 7.30. The compound further showed a mTOR on mTOR of 15.4 µM.

As for `Cc1ccc(C#N)cc1-n1c(=O)n(C)c2cnc3ccc(-c4ccsc4)cc3c21` [Compound 424], in series [1], the negative-log EC50 (pEC50) was 7.64. The mTOR on mTOR was 12.51 µM.

Regarding `Cc1ccc(C#N)cc1-n1c(=O)n(C)c2cnc3ccc(-c4ccoc4)cc3c21` [Compound 425], the negative-log EC50 (pEC50) in series [1] is 7.31. Besides, the mTOR at mTOR amounted to 5 µM.

As to `Cc1cc(N2CC(N)C2)c(C#N)cc1-n1c(=O)n(C)c2cnc3ccc(-c4cccc(C#N)c4)cc3c21` [Compound 426], in series [1], the negative logarithm of the EC50 (pEC50) was 7.53. In addition, the mTOR on mTOR was 6.418 µM.

Regarding `Cc1cc(N2CCNCC2)c(C#N)cc1-n1c(=O)n(C)c2cnc3ccc(-c4ccc(F)c(C#N)c4)cc3c21` [Compound 427], the negative logarithm of the EC50 (pEC50) in series [1] is 7.12. In addition, the mTOR at mTOR came to 30.6 µM.

Compound `Cc1cc(N2CC(N)C2)c(C#N)cc1-n1c(=O)n(C)c2cnc3ccc(-c4ccc(F)cc4)cc3c21` [Compound 428] showed a negative logarithm of the EC50 (pEC50) in series [1] of 7.56. On mTOR, the mTOR came out at 11 µM.

Regarding `CC(=O)N1CCN(c2cc(C)c(-n3c(=O)n(C)c4cnc5ccc(-c6ccc(Cl)cc6)cc5c43)cc2C#N)CC1` [Compound 429], the pEC50 in series [1] was 7.98. This compound also displayed a mTOR at mTOR of 12.57 µM.

With `Cc1cc(NCCN(C)C)c(C#N)cc1-n1c(=O)n(C)c2cnc3ccc(-c4cccc(C#N)c4)cc3c21` [Compound 430], the pEC50 in series [1] was 7.23. The compound also registered a mTOR at mTOR of 4.622 µM.

In series [1], `Cc1ccc(C#N)cc1-n1c(=O)n(C)c2cnc3ccc(-c4cccc(S(N)(=O)=O)c4)cc3c21` [Compound 433] had a pEC50 of 7.77. In addition, the mTOR at mTOR worked out at 6.1 µM.
